Results as given in article PMC4278837, “A Cyclic Peptidic Serine Protease Inhibitor: Increasing Affinity by Increasing Peptide Flexibility” (PLoS ONE, 2014).
Read-outs that look alike come from different tables or passages of the source. Bridge positions count the residues as written; N and C are the ends. Square brackets hold non-standard residues; d marks the D form. Peptide text beside a SMILES is read from it. Ala(1-amidino-4-piperidyl) = N=C(N)N1CCC(C[C@H](N)C(=O)O)CC1

How the values were obtained:
[1] = biological target: T1, huPA-H99Y V41A (Homo sapiens, UniProt P00749, H272Y/V208A); test: Ki for inhibition of huPA-H99Y-V41A, chromogenic substrate; type: biochemical; details: 37°C; means ± S.D.; read-out: K i for inhibition of huPA-H99Y-V41A
T1 construct: To ensure that the uPAs purified from the conditioned media were completely in the two-chain form, they were treated with plasmin; hexa-His (C); made in house; host or cells: HEK293 6E suspension cells
Excerpt: (§1) Determination of Ki values
(§2) The initial reaction velocities were monitored at an absorbance of 405 nm. The inhibition constants (K i) were subsequently determined from the non-linear regression analyses of plots for V i/V o versus [I]0, using Equation 2, derived under assumption of competitive inhibition:
(§3) [drawing 2] (2) where V i and V 0 are the reaction velocities in the presence and absence of inhibitor, respectively; [S]0 and [I]0 are the substrate and inhibitor concentrations, respectively; K M is K M for substrate hydrolysis by each protease. In Equation 2, it is assumed that [S]free ≈ [S]0 and [I]free ≈ [I]0.

[2] = biological target: T2, muPA V213T (Mus musculus, UniProt P06869, V396T); test: Ki for inhibition of muPA-V213T, chromogenic substrate; type: biochemical, murine; details: means ± S.D.; read-out: K i for inhibition of muPA-V213T
T2 construct: To ensure that the uPAs purified from the conditioned media were completely in the two-chain form, they were treated with plasmin; hexa-His (C); made in house; host or cells: HEK293 6E suspension cells
Excerpt: as §1, §2, §3

[3] = biological target: T3, muPA K41A (Mus musculus, UniProt P06869, K210A); test: Ki for inhibition of muPA-K41A, chromogenic substrate; type: biochemical, murine; details: means ± S.D.; read-out: K i for inhibition of muPA-K41A
T3 construct: To ensure that the uPAs purified from the conditioned media were completely in the two-chain form, they were treated with plasmin; hexa-His (C); made in house; host or cells: HEK293 6E suspension cells
Excerpt: as §1, §2, §3

[4] = biological target: T4, huPA-H99Y (Homo sapiens, UniProt P00749, H272Y); test: Surface plasmon resonance analysis of peptide binding to huPA-H99Y; details: SPR
T4 construct: To ensure that the uPAs purified from the conditioned media were completely in the two-chain form, they were treated with plasmin; hexa-His (C); made in house; host or cells: HEK293 6E suspension cells
Procedure: (§4) Surface plasmon resonance (SPR) analysis
(§5) To determine the equilibrium binding constants (KD), the association rate constants (kon) and dissociation rate constants (koff) for peptide binding to uPA, surface plasmon resonance analysis was performed on a Biacore T200 instrument (Biacore, Uppsala, Sweden). A CM5 chip was coupled with the uPA variant (muPA or huPAH99Y) to be analysed, by injecting a concentration of 30 µg/mL uPA in immobilization buffer (10 mM sodium acetate, pH 5.0), aiming for an immobilised level of approximately 500 response units (RU). Immobilisation was followed by surface blocking with ethanolamine. A reference cell was prepared in the same way, without coupling of uPA. Mupain-1 variants in HBS with 0.1% BSA, in a dilution series, were injected at a flow rate of 30 µL per min during 60 s at 25°C. Subsequently, the dissociation was monitored during 600 s. Kinetic constants (k on and k off) were calculated with the Biacore Evaluation Software, using the 1∶1 kinetic fit. The K D values were calculated as k off /k on.

[5] = biological target: huPA-H99Y Q192A (Homo sapiens, UniProt P00749, H272Y/Q373A); test: Ki for inhibition of huPA-H99Y-Q192A, chromogenic substrate; type: biochemical; parameters: To ensure that the uPAs purified from the conditioned media were completely in the two-chain form, they were treated with plasmin; hexa-His (C); made in house; host or cells: HEK293 6E suspension cells; details: 37°C; means ± S.D.; read-out: K i for inhibition of huPA-H99Y-Q192A
Excerpt: as §1, §2, §3

[6] = biological target: T5, muPA (Mus musculus, UniProt P06869); test: Surface plasmon resonance analysis of peptide binding to muPA; parameters: species or system murine; details: SPR, 25°C, pH 7.4
T5 construct: To ensure that the uPAs purified from the conditioned media were completely in the two-chain form, they were treated with plasmin; hexa-His (C); made in house; host or cells: HEK293 6E suspension cells
Procedure: as §4, §5

[7] = biological target: T6, muPA S190A (Mus musculus, UniProt P06869, S373A); test: Ki for inhibition of muPA-S190A, chromogenic substrate; type: biochemical, murine; details: means ± S.D.; read-out: K i for inhibition of muPA-S190A
T6 construct: To ensure that the uPAs purified from the conditioned media were completely in the two-chain form, they were treated with plasmin; hexa-His (C); made in house; host or cells: HEK293 6E suspension cells
Excerpt: as §1, §2, §3

[8] = biological target: T7, huPA-H99Y (Homo sapiens, UniProt P00749, C299A/H272Y/N322Q); test: Isothermal titration calorimetry for binding to huPA-H99Y catalytic domain; details: ITC, 25°C, pH 7.4
T7 construct: recombinant uPA catalytic domain (residues 159–411), harbouring a H99Y mutation; made in house; host or cells: Pichia pastoris X-33 (secreted)
Procedure: For these experiments, we used the catalytic domain of huPA-H99Y expressed in and purified from Pichia pastoris strain X-33 (see above). The protein was dissolved in and dialysed against a buffer of 20 mM sodium phosphate, pH 7.4, 140 mM NaCl. The protein concentration was determined by absorbance at 280 nm, using an extinction coefficient of 43810 M^−1cm^−1. The peptides were dissolved in the above-mentioned buffer. All isothermal titration calorimetry experiments were performed with a MicroCal^TM ITC200 instrument equilibrated to a temperature of 25°C (298oK). The concentration of uPA-H99Y catalytic domain used in the 200 µl sample cell was 5–50 µM, depending on the affinity of the ligand. Titrations were performed by injecting 2 µl of the ligand until the total syringe volume of 40 µl was spent. Titration of ligand into buffer was performed to obtain buffer correction. The equilibrium association constant KA and the reaction enthalpy ΔH were calculated by fitting the integrated titration peaks using a one-binding-site model in the ITC ORIGIN7 programme package. The following formulas for Gibbs free energy ΔG were used to analyse the measured energies
[drawing 4] (4) where R is the gas constant and T the absolute temperature. ΔS, the entropic change during the reaction, was calculated using equations 3 and 4 and the measured K A and ΔH values.

[9] = biological target: T8, muPA K143A (Mus musculus, UniProt P06869, K322A); test: Ki for inhibition of muPA-K143A, chromogenic substrate; type: biochemical, murine; details: means ± S.D.; read-out: K i for inhibition of muPA-K143A
T8 construct: To ensure that the uPAs purified from the conditioned media were completely in the two-chain form, they were treated with plasmin; hexa-His (C); made in house; host or cells: HEK293 6E suspension cells
Excerpt: as §1, §2, §3

[10] = biological target: T9, muPA Y99A (Mus musculus, UniProt P06869, Y274A); test: Ki for inhibition of muPA-Y99A, chromogenic substrate; type: biochemical, murine; details: means ± S.D.; read-out: K i for inhibition of muPA-Y99A
T9 construct: To ensure that the uPAs purified from the conditioned media were completely in the two-chain form, they were treated with plasmin; hexa-His (C); made in house; host or cells: HEK293 6E suspension cells
Excerpt: as §1, §2, §3

[11] = biological target: T10, huPA-H99Y R35A (Homo sapiens, UniProt P00749, H272Y/R198A); test: Ki for inhibition of huPA-H99Y-R35A, chromogenic substrate; type: biochemical; details: 37°C; means ± S.D.; read-out: K i for inhibition of huPA-H99Y-R35A
T10 construct: To ensure that the uPAs purified from the conditioned media were completely in the two-chain form, they were treated with plasmin; hexa-His (C); made in house; host or cells: HEK293 6E suspension cells
Excerpt: as §1, §2, §3

[12] = biological target: T4, huPA-H99Y; test: Ki for inhibition of huPA-H99Y, chromogenic substrate S-2444; type: biochemical; details: 37°C; means ± S.D.; read-out: K i for inhibition of huPA-H99Y
Excerpt: as §1, §2, §3

[13] = biological target: T11, huPA-H99Y K143A (Homo sapiens, UniProt P00749, H272Y/K320A); test: Ki for inhibition of huPA-H99Y-K143A, chromogenic substrate; type: biochemical; details: 37°C; means ± S.D.; read-out: K i for inhibition of huPA-H99Y-K143A
T11 construct: To ensure that the uPAs purified from the conditioned media were completely in the two-chain form, they were treated with plasmin; hexa-His (C); made in house; host or cells: HEK293 6E suspension cells
Excerpt: as §1, §2, §3

[14] = biological target: T12, muPA wt (Mus musculus, UniProt P06869); details: means ± S.D.; starred values reproduced from previous publications; ref Andersen et al., 2008; Hosseini et al., 2011; read-out: K i for inhibition of muPA wt; cited from earlier work
T12 construct: To ensure that the uPAs purified from the conditioned media were completely in the two-chain form, they were treated with plasmin; hexa-His (C); made in house; host or cells: HEK293 6E suspension cells

[15] = biological target: T4, huPA-H99Y; details: 37°C; means ± S.D.; starred values reproduced from previous publications; ref Andersen et al., 2008; Hosseini et al., 2011; read-out: K i for inhibition of huPA-H99Y; cited from earlier work
[16] = 25°C, pH 7.4, calculated as k off/k on, read-out: K D, huPA-H99Y

T5 sequence (P06869 180-433 limits assumed): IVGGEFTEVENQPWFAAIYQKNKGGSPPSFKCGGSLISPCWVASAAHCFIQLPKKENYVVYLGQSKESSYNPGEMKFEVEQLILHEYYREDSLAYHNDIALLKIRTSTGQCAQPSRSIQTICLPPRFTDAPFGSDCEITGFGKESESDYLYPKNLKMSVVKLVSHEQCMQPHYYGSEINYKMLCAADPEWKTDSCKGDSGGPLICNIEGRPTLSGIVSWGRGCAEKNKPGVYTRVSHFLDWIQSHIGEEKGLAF
T5 sequence (P06869 21-178 partner limits assumed): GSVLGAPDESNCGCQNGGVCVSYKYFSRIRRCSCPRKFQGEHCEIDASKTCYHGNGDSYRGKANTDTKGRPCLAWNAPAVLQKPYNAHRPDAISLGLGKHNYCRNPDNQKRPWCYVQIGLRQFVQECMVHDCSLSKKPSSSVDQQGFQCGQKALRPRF
T9 sequence (P06869 180-433 Y274A): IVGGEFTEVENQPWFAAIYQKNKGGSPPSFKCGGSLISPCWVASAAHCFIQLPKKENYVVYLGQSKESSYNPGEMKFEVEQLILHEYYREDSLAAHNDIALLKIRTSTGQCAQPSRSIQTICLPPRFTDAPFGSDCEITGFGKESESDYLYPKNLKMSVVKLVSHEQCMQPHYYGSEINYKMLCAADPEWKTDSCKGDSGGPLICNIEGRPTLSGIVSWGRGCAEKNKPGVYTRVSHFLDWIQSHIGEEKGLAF
T9 sequence (P06869 21-178 partner limits assumed): as the sequence (P06869 21-178 partner limits assumed) above
T2 sequence (P06869 180-433 V396T): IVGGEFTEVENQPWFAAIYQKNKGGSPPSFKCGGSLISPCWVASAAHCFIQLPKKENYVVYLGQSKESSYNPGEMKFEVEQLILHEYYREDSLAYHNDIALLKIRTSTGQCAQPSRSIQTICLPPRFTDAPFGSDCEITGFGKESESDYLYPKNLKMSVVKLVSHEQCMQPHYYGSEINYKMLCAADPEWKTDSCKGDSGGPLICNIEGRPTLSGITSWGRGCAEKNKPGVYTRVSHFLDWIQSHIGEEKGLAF
T2 sequence (P06869 21-178 partner limits assumed): as the sequence (P06869 21-178 partner limits assumed) above
T8 sequence (P06869 180-433 K322A): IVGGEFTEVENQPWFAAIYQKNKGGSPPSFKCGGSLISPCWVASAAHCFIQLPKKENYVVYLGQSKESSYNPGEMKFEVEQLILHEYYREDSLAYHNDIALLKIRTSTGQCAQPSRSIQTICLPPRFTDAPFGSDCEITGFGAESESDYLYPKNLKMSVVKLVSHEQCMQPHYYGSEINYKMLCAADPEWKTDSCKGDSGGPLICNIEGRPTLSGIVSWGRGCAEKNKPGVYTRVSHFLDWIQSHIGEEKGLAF
T8 sequence (P06869 21-178 partner limits assumed): as the sequence (P06869 21-178 partner limits assumed) above
T6 sequence (P06869 180-433 S373A): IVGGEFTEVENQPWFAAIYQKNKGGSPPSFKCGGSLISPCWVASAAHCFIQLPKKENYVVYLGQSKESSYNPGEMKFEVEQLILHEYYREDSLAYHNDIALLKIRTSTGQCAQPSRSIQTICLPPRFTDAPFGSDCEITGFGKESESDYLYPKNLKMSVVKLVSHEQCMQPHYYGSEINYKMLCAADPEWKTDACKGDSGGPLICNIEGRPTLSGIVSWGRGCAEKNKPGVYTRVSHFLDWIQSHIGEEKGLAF
T6 sequence (P06869 21-178 partner limits assumed): as the sequence (P06869 21-178 partner limits assumed) above
T3 sequence (P06869 180-433 K210A): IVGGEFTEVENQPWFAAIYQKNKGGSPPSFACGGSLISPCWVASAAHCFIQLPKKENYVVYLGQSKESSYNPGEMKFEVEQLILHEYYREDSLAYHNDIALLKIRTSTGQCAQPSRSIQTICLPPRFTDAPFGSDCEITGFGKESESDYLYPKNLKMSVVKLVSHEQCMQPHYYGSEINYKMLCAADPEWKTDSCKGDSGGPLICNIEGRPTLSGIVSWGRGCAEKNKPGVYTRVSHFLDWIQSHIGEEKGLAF
T3 sequence (P06869 21-178 partner limits assumed): as the sequence (P06869 21-178 partner limits assumed) above
T12 sequence (P06869 180-433 limits assumed): as the sequence (P06869 180-433 limits assumed) above
T12 sequence (P06869 21-178 partner limits assumed): as the sequence (P06869 21-178 partner limits assumed) above

CC(=O)N[C@H]1CSSC[C@@H](C(N)=O)NC(=O)[C@H](C)NC(=O)[C@H](CC(C)C)NC(=O)[C@H](Cc2ccc(O)cc2)NC(=O)[C@H](CC2CCN(C(=N)N)CC2)NC(=O)[C@H](CO)NC(=O)[C@H](Cc2ccc(O)cc2)NC(=O)[C@H](C)NC(=O)[C@@H]2CCCN2C1=O [Mupain-1-16 D9A, CPAYS[L-3-(N-amidino-4-piperidyl)alanine]YLAC] (Ac-CPAYS[Ala(1-amidino-4-piperidyl)]YLAC-NH2; disulfide 1-10)
Ki [1]: 480 ± 158 nM
Ki [2]: 14 ± 4 nM
Ki [3]: 14 ± 2 nM
k off, huPA-H99Y ([4]; 25°C, pH 7.4): 3.33±0.13 (4) s^-1, ×10^2
k on, huPA-H99Y ([4]; 25°C, pH 7.4): 4.65±0.27 (4) M^-1s^-1, ×10^-5
Kd [4, 16]: 71.8 ± 6 nM
Ki [5]: 438 ± 72 nM
k off, muPA [6]: 1.22±0.06 (3) s^−1, ×10^2
k on, muPA [6]: 5.79±0.82 (3) M^−1s^−1, ×10^−5
Ki [7]: 529 ± 52 nM
Kd [8]: 134 ± 61 nM
N [8]: 0.88±0.11 (5)
TΔS [8]: −6.2±2.7 (5) ^1 kJ/mole
ΔG [8]: −39.5±1.1 (5) ^1 kJ/mole
ΔH [8]: −46.6±2.9 (5) ^1 kJ/mole
Ki [9]: 100 ± 20 nM
Ki [10]: 1360 ± 330 nM
Ki [11]: 174 ± 59 nM
Ki [12]: 309 ± 13 nM
Ki [13]: 188 ± 57 nM

CC(=O)N[C@H]1CSSC[C@@H](C(N)=O)NC(=O)[C@H](CC(=O)O)NC(=O)[C@H](CC(C)C)NC(=O)[C@H](Cc2ccc(O)cc2)NC(=O)[C@H](CC2CCN(C(=N)N)CC2)NC(=O)[C@H](CO)NC(=O)[C@H](Cc2ccc(O)cc2)NC(=O)[C@H](C)NC(=O)[C@@H]2CCCN2C1=O [Mupain-1-16, CPAYS[L-3-(N-amidino-4-piperidyl)alanine]YLDC] (Ac-CPAYS[Ala(1-amidino-4-piperidyl)]YLDC-NH2; disulfide 1-10)
Ki [1]: 1950 ± 300 nM
Ki [14]: 45 ± 10 nM
Ki [2]: 13 ± 3 nM
Ki [3]: 300 ± 50 nM
k off, huPA-H99Y ([4]; 25°C, pH 7.4): 8.93±0.46 (4) s^-1, ×10^2
k on, huPA-H99Y ([4]; 25°C, pH 7.4): 1.07±0.15 (4) M^-1s^-1, ×10^-5
Kd [4, 16]: 844 ± 132 nM
Kd ([4]; huPA-H99Y immobilized on CM5 chip, single example (S3 Fig), read-out: KD of fitted curve, representative sensorgram): 920 nM
koff ([4]; huPA-H99Y immobilized on CM5 chip, single example (S3 Fig), read-out: koff of fitted curve, representative sensorgram): 0.0929 s⁻¹
kon ([4]; huPA-H99Y immobilized on CM5 chip, single example (S3 Fig), read-out: kon of fitted curve, representative sensorgram): 101000 M⁻¹ s⁻¹
Ki [5]: 2710 ± 280 nM
Ki [15]: 2480 ± 70 nM
k off, muPA [6]: 0.671±0.119 (3) s^−1, ×10^2
k on, muPA [6]: 0.898±0.545 (3) M^−1s^−1, ×10^−5
Ki [7]: 352 ± 40 nM
Ki [9]: 130 ± 20 nM
Ki [10]: 1240 ± 440 nM
Ki [11]: 2500 ± 290 nM
Ki [13]: 1130 ± 320 nM
